Assay results reported in article PMC9775310, “Anticancer, Antimicrobial, and Antioxidant Activities of Organodiselenide-Tethered Methyl Anthranilates” (Biomolecules, 2022).
Values after ≈ are worked out from the molar mass of the structure shown. Like-named read-outs stand apart in the source and are kept apart here.

Legend:
[1] = tested on: Escherichia coli; assay: Agar well diffusion assay, E. coli; type: cell-based; settings: ratio of inhibition zone to that of positive control
Experimental: (§1) According to the reported method, the OSe agents’ antimicrobial properties were estimated against Staphylococcus aureus (S. aureus), Escherichia coli (E. coli), and Candida albicans (C. albicans) microbial strains using the agar well diffusion assay. In addition, the MICs (in […]) were also recorded via the microdilution method following the reported procedure. Experimental details can be found in the Supplementary Materials Section S1 [16, 18].
(§2) The promising anticancer activities manifested by the OSe compounds encourage us to further evaluate their respective antimicrobial activity against a panel of gram-negative bacteria (e.g., E. coli) and the gram-positive bacteria (e.g., S. aureus) as well as a fungal strain (C. albicans) using the method of agar diffusion. The clotrimazole antifungal and the ampicillin antibacterial drugs were used as the positive controls. […]
(§3) 1.1.2. The antimicrobial activity
(§4) The antimicrobial activities of the OSe compounds were evaluated against C. albicans yeast as well as E. coli gram-negative and S. aureus gram-positive bacteria employing the agar well diffusion assay [ 4 ] .
(§5) Briefly, a concentration of 1 mM was prepared for each compound by dissolving in DMSO.
(§6) Paper discs of standard size […] were sterilized in an autoclave and soaked in 9 µL of the test compounds, and placed in the Petri dishes, which in turn contain a nutrient media (agar 9 g, peptone 5 g, and beef extract 3 g) seeded with the dedicated strain. Incubation lasted for 13 h at 36 0C. Experiments were replicated three times and the antifungal clotrimazole and antibiotic ampicillin were used as standards. The % activity index for the complex was determined and depicted in table 2. […]

[2] = tested on: Staphylococcus aureus; assay: Agar well diffusion assay, S. aureus; type: cell-based; settings: ratio of inhibition zone to that of positive control
Experimental: as §1, §2, §3, §4, §5, §6

[3] = tested on: Escherichia coli; assay: MIC by microdilution method, E. coli; type: cell-based; settings: read-out: MIC E. coli
Experimental: as §1
(§7) In general, C. Albicans fungus and S. aureus gram-positive bacteria were more sensitive than gram-negative bacteria toward the OSe compounds. […]
(§8) Briefly, a concentration of 1 mM was prepared for each compound by dissolving in DMSO. […]
(§9) Furthermore, the MICs (in µM) were determined by the microdilution method according to the
1.1.3. […]

[4] = tested on: Staphylococcus aureus; assay: MIC by microdilution method, S. aureus; type: cell-based; settings: read-out: MIC S. aureus
Experimental: as §1, §7, §8, §9
1.1.3. […]

[5] = tested on: Escherichia coli; assay: Agar well diffusion assay, E. coli; type: cell-based; settings: read-out: E. coli ZID
[6] = tested on: Staphylococcus aureus; assay: Agar well diffusion assay, S. aureus; type: cell-based; settings: read-out: S. aureus ZID
[7] = tested on: Candida albicans; assay: Agar well diffusion assay, C. albicans; type: cell-based; set-up: concentration or dose not given beside the values; settings: ratio of inhibition zone to that of positive control
Experimental: as §1, §2, §3, §4, §5, §6

[8] = tested on: Candida albicans; assay: MIC by microdilution method, C. albicans; type: cell-based; settings: read-out: MIC C. Albicans
Experimental: as §1, §7, §8, §9
1.1.3. […]

[9] = tested on: Candida albicans; assay: Agar well diffusion assay, C. albicans; type: cell-based; settings: read-out: C. Albicans ZID
[10] = tested on: MCF-7 cells; assay: MTT assay, antiproliferative activity, MCF-7 breast carcinoma cells; type: cell-based; settings: Homo sapiens, MCF7, 24 h, read-out: MCF7 IC50
Experimental: (§10) The anticancer activity of the OSe was performed using the MTT assay against liver (HepG2) and breast (MCF-7) carcinoma cells, as well as normal WI-38 cells following the reported method. Experimental details can be found in the Supplementary Materials Section S1.
(§11) Accordingly, the anticancer properties of the OSe hybrids were assessed against two cancer cell lines, i.e., HepG2 and MCF-7 cells. Furthermore, their corresponding cytotoxicity was also estimated against the immortalized lung WI-38 fibroblasts employing the MTT assay. The Adriamycin cancer drug was used as the positive control.
(§12) 1.1. The biological assays
(§13) 1.1.1. The anticancer activity
(§14) The breast adenocarcinoma (MCF-7), Hepatocellular carcinoma (HEPG-2), and normal fibroblast (WI-38) cells were obtained from ATCC via Holding company for biological products and vaccines (VACSERA), Cairo, Egypt. The reagents […] medium, MTT, DMSO, and fetal bovine serum was obtained from Sigma Aldrich. Dulbecco’s modified Eagle’s medium was used as the culture medium for the cells, and the cytotoxicity was evaluated using the reported MTT assay. Doxorubicin was used as the positive reference, and the IC50 values were obtained from the corresponding dose-response curve.
(§15) This colorimetric assay is based on converting the yellow tetrazolium bromide (MTT) to a purple formazan derivative by mitochondrial succinate dehydrogenase in viable cells. Cell lines were cultured in […] medium with 10% fetal bovine serum. Antibiotics added were 100 units/ml penicillin and 100µg/ml streptomycin at 37 C in a 5% Co2 incubator. The cell lines were seeded in a 96-well plate at a density of 1.0x10^4 cells/well. at 37 C for 48 h under 5% […]
(§16) Finally, dimethyl sulfoxide (DMSO) in the volume of 100 µl is added to each well to dissolve the purple formazan formed. […]

[11] = tested on: HepG2 cells; assay: MTT assay, antiproliferative activity, HepG2 liver carcinoma cells; type: cell-based; settings: Homo sapiens, HepG2, 24 h, read-out: HepG2 IC50
Experimental: as §10
as §11, with “control. The concentration inhibition, 50%, needed to kill half of the cells (IC50) was estimated from (concentration-response plots) and tabulated in Table 1.” for “control.”
as §12, §13, §14, §15
Finally, dimethyl sulfoxide (DMSO) in the volume of 100 µl is added to each well to dissolve the purple formazan formed. The colorimetric assay is measured and recorded at an absorbance of 570 nm using a plate reader (EXL 800, USA). […]

[12] = tested on: WI-38 cells; assay: MTT assay, cytotoxicity against normal WI-38 fibroblasts; type: cell-based; settings: Homo sapiens, WI-38, 24 h, read-out: WI38 IC50
Experimental: as §10, §11, §12, §13, §14, §15, §16

[13] = DPPH radical scavenging bioassay; settings: for DPPH radical scavenging activity: 200 µL, 1 mM in MeOH, DPPH 400 µL, 30 min, 517 nm
Description: (§17) The DPPH and ABTS in vitro bioassays were used to assess the OSe antioxidant activities following the reported method. Experimental details can be found in the Supplementary Materials Section S1.
(§18) The redox modulation activities of the OSe compounds were extensively explored over the last decade owing to their chemopreventive and antioxidant potency. The latter is usually investigated by the ABTS and DPPH in vitro tests employing vitamin C as the positive control. The OSe compound’s magnitude estimated the antioxidant potential to decolorize the distinctive colors of the DPPH^. and ABTS^. radicals at 517 nm and 734 nm, respectively (Figure 2).
(§19) Figure 2 The OSe compounds redox activities assessment using the ABTS and DPPH experiments. All tests are mean ± SD. ABTS experiment: absorbance was followed at 734 nm for OSe compounds (50 µL, 1 mM in MeOH) and ABTS solution (60 µL). DPPH experiment: Absorbance was monitored after 30 min at 517 nm for OSe compounds (200 µL, 1 mM in MeOH) and DPPH (400 µL). […]
1.1.3. The antioxidant activity
1.1.3.1. The DPPH bioassay
The hydrogen atom or electron donation ability of the corresponding compounds was measured by estimating the bleaching of the purple color of a methanolic solution of DPPH [5]. This spectrophotometric assay uses stable DPPH. reagent. The sample was prepared by adding […] of the OSe compounds (1 mM in methanol) to […] DPPH in methanol. After 30 min of incubation in the dark, the absorbance was read against a blank at […]. Ascorbic acid (vitamin C) and ebselen were used as standard antioxidants (positive control). A blank sample was run without DPPH. A negative control sample was run using methanol instead of the sample. The radical scavenging activity was […]
using the following equation:
Inhibition%= (Ablank-Asample)/(Ablank)*100. […]

[14] = ABTS radical scavenging bioassay; settings: for ABTS radical scavenging activity: 50 µL, 1 mM in MeOH, ABTS solution 60 µL, 734 nm
Description: as §17, §18, §19
1.1.3.2. The ABTS bioassay
The antioxidant activity of the investigated compounds was assessed using 2,2’-azino-bis(3-ethylbenzothiazoline-6-sulphonic acid (ABTS) method. The radical cation derived from ABTS was prepared by the reaction of 60 mM ABTS solution with 0.3 M manganese dioxide solution in 0.1M phosphate buffer, pH 7. Then, the mixture was shaken, centrifuged, filtered, and the absorbance (Acontrol) of the resulting green-blue solution (ABTS radical solution) was measured at wavelength 734 nm. Then, […] of 1 mg/ml test compound in phosphate-buffered methanol was added. The absorbance (Atest) was measured. The reduction in color intensity was expressed as % inhibition. The % inhibition for each compound is calculated from the following equation
Inhibition% = (Acontrol-Asample)/(Acontrol)*100
Ascorbic acid (vitamin C) was used as a standard antioxidant (positive control). A blank sample was run without ABTS and using MeOH/phosphate buffer (1:1) instead of the sample. A negative control sample was run with MeOH/phosphate buffer (1:1) instead of a tested compound.

[15] = inhibition zone diameter, disks (6 mm) soaked with 20 μM
[16] = dose needed to decrease the absorbance by 50%

Row | Compound | E. coli IA% (activity index) [1] [%] | S. aureus IA% (activity index) [2] [%] | C. Albicans IA% (activity index) [7] [%] | IC50 [10] [µM] | IC50 [11] [µM] | IC50 [12] [µM] | DPPH radical scavenging activity [13] [%] | ABTS radical scavenging activity [14] [%] | melting point [°C] | zone of inhibition at 20 µM [5] [mm] | zone of inhibition at 20 µM [6] [mm] | zone of inhibition at 20 µM [9] [mm] | also measured
1 | CC1(C)S[C@@H]2[C@H](NC(=O)[C@H](N)c3ccccc3)C(=O)N2[C@H]1C(=O)O [Ampicillin, reference compound] | 100 | 100 | – | – | – | – | – | – | – | – | – | – | MIC ([3]; microdilution): 0.5 µM (≈ 0.175 µg/mL); MIC ([4]; microdilution): 1 µM (≈ 0.349 µg/mL); zone of inhibition at 20 µM [5, 15]: 23 mm; zone of inhibition at 20 µM [6, 15]: 21 mm
2 | Clc1ccccc1C(c1ccccc1)(c1ccccc1)n1ccnc1 [Clotrimazole, reference compound] | – | – | 100 | – | – | – | – | – | – | – | – | – | MIC ([8]; microdilution): 2 µM (≈ 0.69 µg/mL); zone of inhibition at 20 µM [9, 15]: 24 mm
3 | COC(=O)c1cc([Se]C#N)ccc1N [Compound 4, Methyl 2-amino-5-selenocyanatobenzoate] | 60.9 | 76.2 | 75 | 23.4 ± 1.8 | 11.2 ± 1 | 52.6 ± 3.1 | 81 | 73 | 118 to 119 | 14 | 16 | 18 | –
4 | COC(=O)c1cc([Se][Se]c2ccc(N)c(C(=O)OC)c2)ccc1N [Compound 5, dimethyl 5,5′-diselanediylbis(2-aminobenzoate)] | 82.6 | 85.7 | 87.5 | 9.89 ± 0.7 | 7.08 ± 0.6 | 35.9 ± 2.3 | 92 | 86 | – | 19 | 18 | 21 | –
5 | CCOC(=O)C(C#N)=NNc1ccc([Se][Se]c2ccc(NN=C(C#N)C(=O)OCC)c(C(=O)OC)c2)cc1C(=O)OC [Compound 6, dimethyl 5,5′-diselanediylbis(2-(2-(1-cyano-2-ethoxy-2-oxoethylidene) hydrazinyl) benzoate)] | 69.6 | 76.2 | 70.8 | 15.9 ± 1.2 | 16.2 ± 1.2 | 42.5 ± 2.6 | 85 | 69 | 105 to 106 | 16 | 16 | 17 | –
6 | COC(=O)c1cc([Se]C)ccc1N [Compound 14, methyl 2-amino-5-(methylselanyl) benzoate] | 91.3 | 90.5 | 100 | 5.64 ± 0.3 | 3.57 ± 0.1 | 62.4 ± 3.6 | 96 | 91 | – | 21 | 19 | 24 | MIC [3]: 0.5 µM (≈ 0.122 µg/mL); MIC [4]: 2 µM (≈ 0.488 µg/mL); MIC [8]: 2 µM (≈ 0.488 µg/mL); IC50 [13, 16]: 18.67 ± 0.12 µM; IC50 [14, 16]: 29.14 ± 0.2 µM
